Measurements taken from US20240122930A1, “INTEGRIN INHIBITORS AND USES THEREOF IN COMBINATION WITH OTHER AGENTS” (Pliant Therapeutics, Inc., priority 2022, published 2024).
Entries after “also recorded” stand apart in the source; their conditions may differ. Blank lines part the entries; values can stand above or below the compound they belong to.

Experiments:
COL1A1 expression = assay: Precision cut lung slices from human IPF explants, COL1A1 expression; assay type: cell-based; details: human IPF PCLS; for expression of COL1A1: 7 days, treatment alone: nintedanib 75 nM, pirfenidone 50 μM
From the text: Explanted lung tissue was obtained from human IPF subjects and inflated with agarose as described in the preceding examples. Biopsy cores were obtained from the agarose-inflated lung tissue. The biopsy cores were subjected to precision slicing to obtain several hundred μm thick. Individual slices were distributed in a multiwell culture plate and cultured for […] under control (DMSO) and test compound conditions. The viability of the slices over the course of culturing was confirmed by WST-1 assay of mitochondrial activity.
PCLS from 5-7 idiopathic pulmonary fibrosis (IPF) lung tissue samples were cultured for seven days with one of: DMSO; Compound 5 at 200 nM; nintedanib at 75 nM; pirfenidone at 50 μM; a combination of Compound 5 at 200 nM and nintedanib at 75 nM; a combination of Compound 5 at 200 nM and pirfenidone at 50 μM; or an ALK5 inhibitor at 1 μM. […] FIG. 6D is a bar graph showing relative expression of COL1A1 in precision cut lung slices (PCLS) from idiopathic pulmonary fibrosis (IPF) lung tissue upon exposure to Compound 5, clinical standard of care compounds nintedanib (Nin) and pirfenidone (Pirf), and an ALK5 inhibitor, all versus DMSO control.
PCLS from a single IPF lung tissue sample were cultured for seven days with Compound 5 at concentrations of 200 pM, 2 nM, 60 nM, 200 nM, and 1 μM, along with 0.1% DMSO control and an ALK5 inhibitor at 1 μM. […] COL1A1 expression is also graphed for the PCLS in the presence of 0.1% DMSO control, and an ALK5 inhibitor at 1 μM.

[1] = tested on: explanted human lung tissue from patients with idiopathic pulmonary fibrosis; assay: Fibrosis-related gene expression (nCounter Fibrosis Panel) in precision cut lung slices; assay type: cell-based
From the text: Briefly, tissue samples from patients with IPF were acquired at the time of lung transplantation. […] Treated slices were lysed in mRNA-compatible buffer for gene expression analysis. For this study, the lysate from n=6 slices per treatment per lung were pooled for analysis using the nCounter Fibrosis Panel (Nanostring) on the nCounter Max analyzer (Nanostring). This commercially available panel of 770 genes includes genes related to initial tissue damage response, chronic inflammation, proliferation of pro-fibrotic cells, and tissue modification leading to fibrotic disease. Technical quality control and normalization of raw Nanostring mRNA count data was performed using an R framework developed by Bhattacharya et al. (Bhattacharya A. et al., Brief Bioinform. 2021 May 20; 22(3):bbaa163; herein incorporated by reference in its entirety). The R packages limma (see URL www.bioconductor.org/packages/release/bioc/html/limma.html, which is incorporated herein by reference in its entirety) and voom (Law, C.

lung Col1a1 expression [2] = assay: Precision cut lung slices, chronic bleomycin exposure, versus and with nintedanib and pirfenidone; assay type: cell-based, mice (C57BL/6); details: chronic bleomycin PCLS, 7 days culture, single agents
Protocol: Mice (C57BL/6) were administered 3 U/kg of bleomycin (Teva Pharmaceuticals; North Wales, PA) on Day 0 and 1 U/kg of bleomycin on days 14, 28, 42 and 56 via oropharyngeal aspiration while under anesthesia. At day 70, 14 days following the final bleomycin insult, precision cut lung slices were obtained. […] The lobes were then subjected to precision slicing to obtain samples for culture using a microtome (Compresstome VF-300-OZ, Precisionary; Greenville, NC). Individual slices were distributed in a multiwell culture plate and cultured for 7 days under control (DMSO) and test compound conditions. The viability of the slices over the course of culturing was confirmed by WST-1 assay of mitochondrial activity. During the culture period, slices in the control group were treated with DMSO and slices in the test group were treated with a DMSO solution of one of: […]

lung Col1a1 expression [3] = assay: Precision cut lung slices, chronic bleomycin exposure, Col1a1 expression; assay type: cell-based, mice (C57BL/6); details: chronic bleomycin PCLS, 7 days culture
Protocol: Mice (C57BL/6) were administered 3 U/kg of bleomycin (Teva Pharmaceuticals; North Wales, PA) on Day 0 and 1 U/kg of bleomycin on days 14, 28, 42 and 56 via oropharyngeal aspiration while under anesthesia. At day 70, 14 days after the final bleomycin insult, precision cut lung slices were obtained. […] The lobes were then subjected to precision slicing to obtain samples for culture using a microtome (Compresstome VF-300-OZ, Precisionary; Greenville, NC). Individual slices were distributed in a multiwell culture plate and cultured for 7 days under control (DMSO) and test compound conditions. The viability of the slices over the course of culturing was confirmed by WST-1 assay of mitochondrial activity. […] Compound 5; and the small molecule ALK5 inhibitor. […] Compound 5 was run at approximate IC50 for inhibition of TGF-beta activation by αVβ6.

[4] = tested on: Type I Collagen gene Col1a1 expression; assay: Precision cut lung slices, acute bleomycin exposure, Col1a1 expression; assay type: cell-based, mice (C57BL/6); details: acute bleomycin PCLS, 3 days culture; integrin inhibitors at IC50 for TGF-beta activation, pan-αV and ALK5 inhibitors at 10× IC50
[5] = target: recombinant human integrin αVβ6 (Homo sapiens, UniProt P06756+P18564); assay: Solid phase integrin αVβ6 binding assay; details: TGFβ1 LAP, values presented in four ranges, read-out: αvβ6 Inhibition IC50 (nM)-range
Protocol: Microplates were coated with recombinant human integrin αVβ6 (2 μg/mL) in PBS (100 μL/well 250 C, overnight). The coating solution was removed, washed with wash buffer (0.05% Tween 20; 0.5 mM MnCl2; in 1×TBS). The plate was blocked with 200 μL/well of Block Buffer (1% BSA; 5% sucrose; 0.5 mM MnCl2; in 1×TBS) at 370 C for 2 h. Dilutions of testing compounds and recombinant TGFβ1 LAP (0.67 μg/mL) in binding buffer (0.05% BSA; 2.5% sucrose; 0.5 mM MnCl2; in 1×TBS) were added. The plate was incubated for 2 hours at 250 C, washed, and incubated for 1 hour with Biotin-Anti-hLAP. Bound antibody was detected by peroxidase-conjugated streptavidin. The IC50 values for testing compounds were calculated by a four-parameter logistic regression.
The compounds tested were compound samples prepared according to procedures described in the Synthetic Examples section, with the stereochemical purity as indicated in the Examples.
A third series of exemplary compounds was selected for testing in the solid phase integrin αVβ6 binding assay. The compounds tested were compound samples prepared according to procedures described in the Synthetic Examples section, with the stereochemical purity as indicated in the Examples. […] Bound antibody was detected by peroxidase-conjugated streptavidin. The IC50 values for testing compounds were calculated by a four-parameter logistic regression.

[6] = tested on: participants with idiopathic pulmonary fibrosis (IPF); details: FIG. 26, histograms from left to right; from USPI or literature; cited from earlier work
[7] = single treatment, adj. p-value <0.05

Chain of recombinant human integrin αVβ6 (P06756 31-992 limits assumed): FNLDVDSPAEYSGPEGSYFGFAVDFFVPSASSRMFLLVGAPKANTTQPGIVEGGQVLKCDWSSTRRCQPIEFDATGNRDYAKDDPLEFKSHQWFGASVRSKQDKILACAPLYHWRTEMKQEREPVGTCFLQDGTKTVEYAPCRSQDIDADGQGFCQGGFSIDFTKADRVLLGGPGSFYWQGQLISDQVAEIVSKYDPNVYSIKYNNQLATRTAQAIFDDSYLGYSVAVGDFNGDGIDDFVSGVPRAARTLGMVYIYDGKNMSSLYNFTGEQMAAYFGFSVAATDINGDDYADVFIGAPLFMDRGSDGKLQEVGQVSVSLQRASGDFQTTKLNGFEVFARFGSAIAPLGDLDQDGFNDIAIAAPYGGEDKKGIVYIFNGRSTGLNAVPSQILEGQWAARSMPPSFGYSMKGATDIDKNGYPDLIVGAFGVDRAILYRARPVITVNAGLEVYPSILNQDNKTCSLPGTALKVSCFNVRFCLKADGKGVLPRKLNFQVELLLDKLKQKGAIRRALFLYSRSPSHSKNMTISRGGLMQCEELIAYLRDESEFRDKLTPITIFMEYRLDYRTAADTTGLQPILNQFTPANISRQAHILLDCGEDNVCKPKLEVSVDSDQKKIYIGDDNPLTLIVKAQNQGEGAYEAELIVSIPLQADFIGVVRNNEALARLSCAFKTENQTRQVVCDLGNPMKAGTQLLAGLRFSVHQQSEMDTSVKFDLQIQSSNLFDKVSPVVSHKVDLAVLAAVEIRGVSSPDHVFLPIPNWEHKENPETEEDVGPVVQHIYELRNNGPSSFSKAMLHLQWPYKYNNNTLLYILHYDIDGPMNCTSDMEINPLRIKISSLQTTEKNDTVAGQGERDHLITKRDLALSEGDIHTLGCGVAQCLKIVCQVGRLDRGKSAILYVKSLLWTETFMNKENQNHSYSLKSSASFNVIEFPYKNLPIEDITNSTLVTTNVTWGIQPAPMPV
Chain of recombinant human integrin αVβ6 (P18564 22-707 limits assumed): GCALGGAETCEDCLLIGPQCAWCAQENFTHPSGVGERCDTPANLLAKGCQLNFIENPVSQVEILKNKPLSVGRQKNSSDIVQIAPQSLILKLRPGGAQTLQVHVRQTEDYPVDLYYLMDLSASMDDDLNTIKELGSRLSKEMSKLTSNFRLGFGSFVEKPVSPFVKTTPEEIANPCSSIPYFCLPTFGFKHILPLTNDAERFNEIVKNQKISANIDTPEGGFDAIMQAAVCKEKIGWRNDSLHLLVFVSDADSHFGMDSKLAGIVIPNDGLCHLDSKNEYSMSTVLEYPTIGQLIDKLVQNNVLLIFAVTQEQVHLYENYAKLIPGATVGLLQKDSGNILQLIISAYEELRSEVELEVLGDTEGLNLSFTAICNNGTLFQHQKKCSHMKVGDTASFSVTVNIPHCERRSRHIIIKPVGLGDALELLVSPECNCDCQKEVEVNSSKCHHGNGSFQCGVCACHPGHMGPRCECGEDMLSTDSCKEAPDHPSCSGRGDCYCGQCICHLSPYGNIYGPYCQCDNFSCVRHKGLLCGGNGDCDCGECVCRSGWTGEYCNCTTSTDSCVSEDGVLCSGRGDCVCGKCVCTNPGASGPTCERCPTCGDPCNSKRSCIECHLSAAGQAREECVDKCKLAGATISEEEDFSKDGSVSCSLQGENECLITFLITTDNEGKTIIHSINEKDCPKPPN

Structure (SMILES): Cc1ccc(=O)n(-c2ccccc2)c1 [pirfenidone, 5-methyl-1phenyl-2-1(H)-pyridone, reference compound]
expression of COL1A1 (COL1A1 expression): did not significantly reduce
Genes Down-regulated with Compound 5 and Pirfenidone Alone or in Combination, region F ([1]; FIG. 24 Venn region F: altered by Compound 5 or pirfenidone alone, but not by Compound 5 in combination with pirfenidone): CXCR4; also recorded: PECAM1
Genes Up-regulated with Compound 5 and Pirfenidone Alone or in Combination, region G ([1]; FIG. 24 Venn region G: only altered by pirfenidone in the absence of Compound 5): COL7A1 and MMP7 and PTGS2
logFC KNG1 [1, 7]: −1.1
lung Col1a1 expression vs DMSO vehicle control slices (lung Col1a1 expression [2]): slight increase

Structure (SMILES): Cc1cccc(-c2n[nH]cc2-c2ccc(F)c(-c3cnn(CCO)c3)c2)n1 [small molecule ALK5 inhibitor, 4-[2-Fluoro-5-[3-(6-methyl-2-pyridinyl)-1H-pyrazol-4-yl]phenyl]-1H-pyrazole-1-ethanol, reference compound]
lung Col1a1 expression, normalized to DMSO control slices (lung Col1a1 expression [3]): greatest decrease
lung Col1a1 expression, normalized to DMSO control slices (COL1A1 expression; 3 days, 3G9 ≥400 ng/mL, Compound 5 179 nM, ALK5 inhibitor 1 μM): decrease in lung Col1a1 expression
Type I Collagen gene Col1a1 expression, normalized to DMSO control slices [4]: greatest decrease
lung Col1a1 expression vs DMSO vehicle control slices (lung Col1a1 expression [2]): substantial, statistically significant (p<0.0001 vs vehicle) decrease

logFC CYP2J2 [1, 7]: 1.025
Structure (SMILES): COC(=O)c1ccc2c(c1)NC(=O)/C2=C(\Nc1ccc(N(C)C(=O)CN2CCN(C)CC2)cc1)c1ccccc1 [nintedanib, 3-Z-[1-(4-(N-((4-methyl-piperazin-1-yl)-methylcarbonyl)-N-methyl-amino)-anilino)-1-phenyl-methylene]-6-methoxycarbonyl-2-indolinone, reference compound]
expression of COL1A1 (COL1A1 expression): did not significantly reduce
Genes up-regulated, Venn region G (FIG. 24) ([1]; IPF precision cut lung slices, 7 days, only altered by nintedanib in the absence of Compound 5): ACTA2 and CCL19 and COL6A5 and ELN and IGF1 and PYGM
lung Col1a1 expression vs DMSO vehicle control slices (lung Col1a1 expression [2]): slight increase

Structure (SMILES): CC(C)(C)c1cc(Br)cc([C@H](CC(=O)O)NC(=O)CNC(=O)c2cc(O)cc(NC3=NCC(O)CN3)c2)c1 (stereo partly drawn) [second pan-αV small molecule inhibitor, (3S)—N-[3-hydroxy-5-[(1,4,5,6-tetrahydro-5-hydroxy-2-pyrimidinyl)amino]benzoyl]glycyl-3-[3-bromo-5-(1,1-dimethylethyl)phenyl]-β-alanine]
Type I Collagen gene Col1a1 expression, normalized to DMSO control slices [4]: decreased Type I Collagen gene Col1a1 expression comparably

IC50 [5]: < 50 nM
Structure (SMILES): COCCN(CCCCc1ccc2c(n1)NCCC2)CCC(Nc1ncnc2cnccc12)C(=O)O (stereo not shown) [Compound 17, 4-((2-methoxyethyl)(4-(5,6,7,8-tetrahydro-1,8-naphthyridin-2-yl)butyl)amino)-2-(pyrido[3,4-d]pyrimidin-4-ylamino)butanoic acid]

Structure (SMILES): [O-][S+]1CCc2nc(N3CCC(c4ncc(Cl)cn4)CC3)nc(NC3(CO)CCC3)c21 (stereo not shown) [BI 1015550]
% Incidence of Diarrhea in IPF Clinical Trials [6]: 17%
